Assay results reported in publication PMC7070167, “Cell‐permeable high‐affinity tracers for Gq proteins provide structural insights, reveal distinct binding kinetics and identify small molecule inhibitors” (British Journal of Pharmacology, 2020).
Values joined by “and” are separate entries in the source; they are usually repeats but may differ in a detail not shown here. Equal values may be shown once. *1 amine or outer side, *2 acyl side, *3 side chain or, on linkers, in order; H or OH if unused. Where a SMILES comes first, the peptide text is derived from it. Bridges are numbered along the chain shown (N, C = ends). [ ]: non-standard residue; d: D form. The star is where a group is joined. Leu(3R-O(AcLeu(3R-OH))) = CC(=O)N[C@H](C(=O)O[C@H](C(C)C)[C@H](N)C(=O)O)[C@H](O)C(C)C; Leu(3R-OH,Nα-propionyl) = CCC(=O)N[C@H](C(=O)*)[C@H](O)C(C)C; X1 = CC(C)[C@@H](O[*:3])[C@H](N[*:1])C(=O)[*:2]; NMeT = CN[C@H](C(=O)O)[C@@H](C)O; dPhLac = O=C(O)[C@H](O)Cc1ccccc1; NMeA = CN[C@@H](C)C(=O)O; NMeDha = C=C(NC)C(=O)O

How the values were obtained:
Gq proteins [1] = target: T1, Gq proteins (Homo sapiens, UniProt P50148); experiment: Competition binding at human platelet membrane preparations; conditions: for Ki / pseudo‐Bmax from pseudohomologous competition: human platelet membranes, 37°C
T1 construct: Native cell membrane preparations from rat brain cortex and human blood platelets; host or cells: human platelets (intact suspension or membrane preparation)
T1 sequence (P50148 1-359): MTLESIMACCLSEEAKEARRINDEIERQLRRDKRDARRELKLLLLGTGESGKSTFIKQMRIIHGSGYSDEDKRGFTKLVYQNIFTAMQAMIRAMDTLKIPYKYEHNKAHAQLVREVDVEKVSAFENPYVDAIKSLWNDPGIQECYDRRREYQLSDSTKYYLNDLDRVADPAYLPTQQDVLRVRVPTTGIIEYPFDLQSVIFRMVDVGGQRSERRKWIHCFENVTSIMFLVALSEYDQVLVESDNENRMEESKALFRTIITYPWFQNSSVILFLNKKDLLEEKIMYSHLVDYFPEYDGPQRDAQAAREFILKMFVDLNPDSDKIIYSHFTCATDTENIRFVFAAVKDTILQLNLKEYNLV
Description: Apheresis‐purified human thrombocyte‐plasma concentrates were centrifuged (1,000 g at 4°C for 10 min), and the supernatant was decanted and centrifuged again (at 48,400 g, 4°C, for 60 min). The supernatant was kept and used as platelet‐poor plasma for control experiments; the formed pellet was resuspended in buffer 1 (50‐mM Tris–HCl, 5‐mM EDTA, and 150‐mM NaCl) and centrifuged at 48,400 g, 4°C for 60 min. The supernatant was discarded again and the pellet was resuspended in buffer 2 (5‐mM Tris–HCl and 5‐mM EDTA). The cell suspension was homogenized using an Ultra‐Turrax® (IKA Laborechnik, Staufen, Germany) for 1 min at a speed level of 4, subsequently transferred into cryovials, and stored at −80°C before use (the preparation is stable for several months). For radioligand binding assays, 50 μg of protein per vial was used, determined by the method of Bradford (Bio‐Rad Protein Assay).
(§1) The experiments were performed in 50‐mM Tris–HCl buffer, pH 7.4. The final assay volume of 200 μl contained 5 μl of test compound in DMSO, 50 μl of [^3H]PSB‐15900 or [^3H]PSB‐16254, respectively, in buffer, 5 nM of final concentration, and 100 μl of human platelet membrane preparation (50 μg of protein) or intact human platelets (7.5 × 10^6 cells/vial). Non‐specific binding was determined in the presence of 5‐μM FR. The incubation was started by the addition of membrane preparation and was performed at 37°C for 1 hr with gentle shaking. It was terminated by rapid vacuum filtration through GF/C glass‐fibre filters using a Brandel 24‐well harvester. The filters were rinsed three times with approximately 3 ml each of ice‐cold Tris–HCl buffer, 50 mM, pH 7.4 containing 0.1% Tween 20 and 0.1% BSA, to separate bound from free radioligand. The filters were punched out and transferred to scintillation vials. Luma Safe® scintillation cocktail (2.5 ml) was added, and after 6 hr of incubation, the samples were counted for 1 min each, using a liquid scintillation counter (counting efficiency 53%). Experiments in the presence of GTP were additionally performed after preincubation of the membrane preparation with GTP for 1 hr. pIC50 and pKi values were calculated using equations for one‐site competition as implemented in GraphPad Prism 6.01 (GraphPad Inc., La Jolla, CA, USA).

[2] = test system: Gq signalling via endogenously expressed M3 receptor; experiment: Calcium mobilization assay, carbachol-induced (M3 receptor) in 1321N1 astrocytoma cells; assay type: cell-based, human; conditions: Homo sapiens, versus Carbachol (EC80), M3 receptor, read-out: pIC50, inhibition of calcium mobilization (converted)
Description: The functional activity of YM, FR, and Ebselen as Gq protein inhibitors was determined by assessing their ability to antagonize ADP‐induced calcium mobilization in 1321N1 astrocytoma cells stably transfected with the human P2Y1 receptor, which is a Gq‐coupled receptor. In addition, the compounds' inhibitory effects on Carbachol‐induced calcium mobilization were studied in the same cell line, which endogenously express the Gq‐coupled muscarinic M3 ACh receptor. The assays were performed according to a previously described procedure (Rafehi et al., 2017) using a NOVOstar microplate reader (BMG Labtech, Offenburg, Germany).

Gq proteins [3] = target: T1, Gq proteins; experiment: High-throughput (96-well) competition binding assay at human platelet membranes; conditions: for Ki: versus [³H]PSB-15900 (5 nM), high-throughput 96-well format, 37°C
Description: as §1
Competition binding experiments were performed as described above (for incubation conditions, washing steps, and buffers) but on 96‐well plates using a Brandel 96‐well plate harvester with GF/C Unifilters (Perkin‐Elmer). After harvesting, 50 μl per cavity of Ultima Gold scintillation cocktail (Perkin‐Elmer) was added, and counting was performed as described above.

[4] = pKi, versus [^3H]PSB‐15900 (5 nM)
[5] = pKi, versus [^3H]PSB‐16254 (5 nM)

Compound	Kd (Gq proteins [1])	Ki (Gq proteins [1]; Ki, versus both radioligands)	Ki (Gq proteins [1]; [4])	Ki (Gq proteins [1]; [5])	pseudo‐Bmax from pseudohomologous competition (Gq proteins [1]; versus [^3H]PSB‐16254 (5 nM))	IC50 [2]	Ki (Gq proteins [1]; Ki, versus [³H]PSB-15900 (5 nM), standard 24-well format)	Ki (Gq proteins [1]; pKi, versus [³H]PSB-15900 (5 nM), standard 24-well format)	pseudo‐Bmax from pseudohomologous competition (Gq proteins [1]; versus [^3H]PSB‐15900 (5 nM))	inhibition of radioligand binding (positive control) (Gq proteins [3]; 1 μM, 96‐well plates)	Ki (Gq proteins [3]; read-out: Ki)	Ki (Gq proteins [3]; read-out: pKi (converted))
C=C1C(=O)N[C@@H](C)C(=O)N(C)[C@@H](C)C(=O)N[C@@H]([C@H](OC(=O)[C@@H](NC(C)=O)[C@H](O)C(C)C)C(C)C)C(=O)N(C)[C@@H]([C@@H](C)OC)C(=O)O[C@H](C)[C@H](NC(C)=O)C(=O)O[C@H](Cc2ccccc2)C(=O)N1C [YM, YM‐254890] (Ac-T[dPhLac][NMeDha]A[NMeA][Leu(3R-O(AcLeu(3R-OH)))][NMeT](Me); ester 1-C)	6.29 ± 0.84 nM	3 to 5 nM	5.01 nM	6.31 nM	6.61 ± 0.60 pmol·mg^−1 of protein and 6.61 pmol·mg^−1 of protein	0.891 nM						
C=C1C(=O)N[C@@H](C)C(=O)N(C)[C@@H](C)C(=O)N[C@@H]([C@H](OC(=O)[C@@H](NC(=O)CC)[C@H](O)C(C)C)C(C)C)C(=O)N(C)[C@@H]([C@@H](C)OC)C(=O)O[C@H](C(C)C)[C@H](NC(C)=O)C(=O)O[C@H](Cc2ccccc2)C(=O)N1C [FR, FR900359] (Ac-[X1][dPhLac][NMeDha]A[NMeA][X1](Leu(3R-OH,Nα-propionyl))[NMeT](Me); ester 1-C)	4.1 ± 0.5 nM	3 to 5 nM	4.07 nM	2.51 nM		0.741 nM	6.91 ± 2.25 nM	6.76 nM	6.28 ± 1.12 pmol·mg^−1 of protein and 6.28 pmol·mg^−1 of protein	complete inhibition	6.56 ± 1.92 nM	6.46 nM
